Data published in a melting point compilation (Tetko et al.; mined from patent text by program, amines drawn as free bases though some values may be those of a salt).

SMILES	melting point
O=C(O)COc1cc(Cl)ccc1C(=O)NCc1cc(C(F)(F)F)cc(C(F)(F)F)c1	191 to 193 °C
CCSc1nc2c(C)sc(C(=O)O)c2n1Cc1ccc(-c2ccccc2-c2n[nH]c(=O)n2C)cc1	181 to 182 °C
O=c1[nH]c2c(C(F)(F)F)cccc2c(=O)n1CCCN1CC=C(c2ccc(Cl)cc2)CC1	199 to 201 °C
Cn1cc(Cl)c(-n2ccnc2S(N)(=O)=O)n1	208 to 210 °C
CC(C)(CO)NS(=O)(=O)c1cccc(NC(=O)c2cnn3c(C4CC4)cc(-c4ccc(C(F)(F)F)cc4)nc23)c1	228 to 230 °C
CCCc1c(OCCCOc2ccc(C(=O)C(=O)O)cc2)ccc(C(C)=O)c1OC	94 to 96 °C
CCC(=O)OC1(C(=O)CO)CCC2C3CC(C)C4=CC(=O)CCC4(C)C3C(O)CC21C (stereo unspecified)	197 °C
COC(=O)c1c(F)cc(OCCNC(=O)C2Cc3ccccc3N2S(=O)(=O)c2ccc(-c3ccc(F)cc3OC)cc2)cc1F (stereo unspecified)	65 to 76 °C
COc1ccc(C(C)NC2=Nc3ccc(Cl)cc3C(=O)N(C)C2)cc1OC (stereo unspecified)	175 to 178 °C
Cc1ccc(-c2nc(-c3nn(Cc4ccccc4F)c4ncccc34)ncc2C#N)cc1	229 °C
C#CCc1ccc2c(C)c(C(=O)O)c(=O)oc2c1	172 °C
N#Cc1cnc2sc(-c3cccc(C=O)c3)cc2c1Cl	> 250 °C
CC(OS(C)(=O)=O)C(=O)O (single isomer, unassigned; (-))	65 to 72 °C
COc1cc2nc(N3CCN(c4ccnc(Cl)n4)CC3)cc(N)c2cc1OC	266 °C
CN1C(C(=O)Nc2ccccn2)=C(OC2OC(=O)c3ccccc32)c2ccccc2S1(=O)=O (stereo unspecified)	151 to 152 °C
CCOC(=O)c1ccc(COc2cccc3nc(C(=O)NCc4cccc(OC)c4)[nH]c(=O)c23)cc1	205 to 207 °C
CSCC(O)COc1cccc2oc(C(=O)O)cc(=O)c12 (stereo unspecified)	76 to 79 °C
C[C@]1(COC(=O)N2CCC(Nc3ccc(C(F)(F)F)cc3)CC2)Cn2cc([N+](=O)[O-])nc2O1	137 to 140 °C
Fc1cc(Br)ccc1CSc1nc2cnccc2[nH]1	204 to 206 °C
CS(=O)(=O)Nc1cccc([N+](=O)[O-])c1	237 °C
COC(=O)Cc1nc(-c2ccc(OC)cc2)c(-c2ccc(OC)cc2)s1	79 to 81.5 °C
NC(=O)N(O)Cc1cccc(OCCc2csc(-c3ccc(C(F)(F)F)cc3)n2)c1	118 to 120 °C
Fc1cccc(CSc2nnc(-c3ccn4ncnc4c3)o2)c1	153 to 154 °C
O=[N+]([O-])c1cc(NS(=O)(=O)CCl)ccc1F	112 to 113 °C

SMILES	melting point
COc1cc2ncnc(N3CCc4cc([N+](=O)[O-])c(Cl)cc43)c2cc1OC	276 to 278 °C
O=C(O)CCc1cnoc1-c1ccc(Cl)c(Cl)c1	171 to 172 °C
COCCN(CCOC)C(=O)c1n[nH]c2c(=O)[nH]c3cc(Cl)ccc3c(=O)c12	207 to 209 °C
CCCn1c(COCC)nc2c(N)nc3cc(OCC(=O)N4CCOCC4)ccc3c21	213 °C
CC(=O)Nc1cccc2c1C(=O)c1c-2n[nH]c1C(C)C	> 250 °C
O=Cc1c(Cl)ccc2cc(Cl)cnc12	208 °C
CCc1ncc(CCCOc2c(C)cc(C#N)cc2C)s1	52 to 53 °C
CC(C)NC1=Nc2cccnc2SC1	135 to 139 °C
COc1c(CCCI)cccc1OCc1coc(/C=C/c2ccccc2)n1	103 to 104 °C
O=C(Nc1c(F)cccc1F)c1ccc(-n2nc(C(F)(F)F)cc2C2CC2)nc1	192 to 194 °C
CCOC(=O)c1c(N)nn(-c2c(Cl)cc(C(F)(F)F)cc2Cl)c1N	196 to 197 °C
COc1nc(-c2ccccc2)n(Cc2ccc(-c3ccccc3S(N)(=O)=O)cc2)c1C=O	188 °C
CCOC(=O)C(=Cc1ccc(OC)cc1OC)C(=O)OCC	40 to 41 °C
CCCc1ncc(CCCCC(=O)O)s1	124 °C
CCCCc1c(CNC(=O)OC(C)(C)C)c(CC(C)C)nc2ccc(OCc3ccccc3)cc12	131 to 132 °C
CNCC1=C(C#N)C(c2cccc(C#N)c2Br)c2c[nH]nc2N1 (stereo unspecified)	258 °C
COc1cc(C2=C(c3c[nH]c4cccnc34)C(=O)NC2=O)cc(OC)c1OC	274 to 275 °C
CN1Cc2c(-c3nc(CNCc4ccccc4)no3)ncn2-c2ccccc2C1=O	195 to 198 °C
CCCCCC(CCCCC)n1c(=O)sc2c(=O)[nH]c(N)nc21	> 195 °C
COc1cc2nc(N)nc(-c3ccccc3Br)c2cc1OC	241 to 243 °C
Cc1oc2c(C)c(C)c(NCc3ccc(F)cc3)c(C)c2c1-c1ccc(F)cc1	107 to 109 °C
CCCCCCCCc1ccc(CCC(CC)(CCOC(C)=O)NC(C)=O)cc1 (stereo unspecified)	108 to 110 °C
O=C(O)CCc1ccc(NS(=O)(=O)c2ccc(Cl)cc2)cn1	144 to 146 °C
N[C@@H](Cc1ccccc1)C(=O)N(C(=O)Cc1cc(F)cc(F)c1)[C@@H]1C(=O)Nc2ccccc2S[C@@H]1c1ccccc1	115 to 120 °C

Next, values leading:

melting point	SMILES
127 °C	O=S(=O)(c1ccccc1)n1ccc2cnccc21
134 to 135 °C	CC(Oc1ncn(-c2cccc(Br)c2)n1)C(=O)NC1CC1 (stereo unspecified)
150 to 152 °C	CN(C)C(=S)Nc1ccccc1N1CCOCC1
110 °C	CC(C)(C)N(NCc1ccccc1)C(=O)c1ccccc1
45 to 47 °C	O=C(NCCCN1CCN(Cc2ccccc2)CC1)Nc1ccccc1
136 to 137 °C	O=C(O)[C@@H]1C[C@@H](O)CN1C(=O)OCc1ccc([N+](=O)[O-])cc1
192 °C	CS(=O)(=O)C(=C1CN(C(c2ccccc2)c2ccccc2)C1)c1ccc(Cl)cc1
144 to 146 °C	OC(CCc1ccccc1)c1c[nH]cn1 (stereo unspecified)
180 to 183 °C	O=C1C=C(c2ccccc2)C(=Nc2ccccc2)N1
106 to 109 °C	COC(=O)C1Cc2c([nH]c3ccccc23)C(c2ccc(Cl)cc2Cl)N1C(=O)CCl (stereo unspecified)
131 to 141 °C	CN1CCN(C(c2ccc(Cl)cc2)c2cccc(C=CC(=O)O)c2)CC1 (stereo unspecified)
109 to 110 °C	O=P1(c2ccccc2)CCCC1CO (stereo unspecified)
102 °C	FC(F)(F)c1cc2ccccc2[nH]1
78 to 80 °C	O=C(Cl)c1ccc(OCc2ccccc2)c(Cl)c1
86 to 87 °C	O=C(O)[C@@H](CSCc1ccccc1)N1C(=O)C=CC1=O
235 to 236 °C	O=C(Cc1c[nH]c2ccccc12)Nc1ccccc1C(=O)Nc1ccccc1
88 °C	OCCSC(=S)Nc1ccccn1
191 °C	CCC12CCC3C4CCC(=O)C=C4CCC3C1=CC=C2c1ccccc1 (stereo unspecified)
144 to 145 °C	CCCCCCN1C(=O)C(=CC(=O)O)SC1=Nc1cccc2ccccc12
180 to 181 °C	CC(C)S(=O)(=O)n1c(N)nc2ccc(C(=CCl)c3ccccc3)cc21
208 to 209 °C	Cc1sc(C(=O)OCc2ccccc2)cc1NC(=O)NCc1ccccc1
374 °C	O=C1c2c(oc3ccccc23)-c2ccc(O)c3cccc1c23
97 to 100 °C	COC(=O)[C@H](CO)NC(=O)[C@@H]1CCCN1C(=O)OCc1ccccc1
